Experimental data reported in patent US6221865A, “Inhibitors of protein isoprenyl transferases” (priority 1998, dated 2001).
Structures can show the parent of a compound that is named as a salt. Where two headings read alike, the source gives them in different places.

Target: T1, protein farnesyltransferase (Rattus norvegicus, UniProt Q02293+Q04631)
T1 construct: The enzyme is purified according to Reiss, Y., et al., Cell, 62: 81-88 (1990), utilizing steps one through three; from tissue; host or cells: rat brain
Experiment: Inhibition of farnesyltransferase (scintillation proximity assay, rat brain enzyme, biotin-K Ras B fragment substrate)
Type: biochemical
Settings: for % inhibition of farnesyltransferase at 1 × 10^-6 M / inhibition at 1 µM: 1 × 10^-6 M (Table 2); for inhibition at 1 µM: read-out: % inhibition of farnesyltransferase at 1 × 10^-6 M; for % inhibition of farnesyltransferase at 1 × 10^-5 M: 1 × 10^-5 M (Table 1)
How it was run: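 Enzyme from rat brain, partly purified (steps one to three), assayed by SPA kit using 0.1 mM final biotin-K Ras B peptide as prenyl acceptor rather than biotin-lamin. Activity given as percent inhibition.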

[1] = read-out: % inhibition at 0.01 μM (**), Table 6, ** = 0.01 μM (footnote), title prints 0.01 mM
[2] = read-out: % inhibition of farnesyltransferase at 1 × 10^-8 M, 1 × 10^-8 M (Table 4)
[3] = read-out: % inhibition of farnesyltransferase at 1 × 10^-7 M, 1 × 10^-7 M (Table 3)

T1 sequence (Q02293 whole entry, one chain of several): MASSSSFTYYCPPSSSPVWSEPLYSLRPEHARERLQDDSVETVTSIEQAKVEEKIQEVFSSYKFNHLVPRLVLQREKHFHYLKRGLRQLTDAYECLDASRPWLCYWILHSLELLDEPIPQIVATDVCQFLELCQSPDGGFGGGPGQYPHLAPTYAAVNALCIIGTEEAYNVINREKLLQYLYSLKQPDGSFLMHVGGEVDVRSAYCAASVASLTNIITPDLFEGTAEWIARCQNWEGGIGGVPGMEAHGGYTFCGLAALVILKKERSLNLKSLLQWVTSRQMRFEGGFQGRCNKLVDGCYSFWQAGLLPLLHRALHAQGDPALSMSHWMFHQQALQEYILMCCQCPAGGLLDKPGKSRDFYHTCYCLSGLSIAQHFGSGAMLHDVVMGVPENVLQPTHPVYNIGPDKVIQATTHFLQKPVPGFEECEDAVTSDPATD

In the case of `CSCC[C@H](NC(=O)c1ccc(COC2CCN(Cc3ccccc3)C2)cc1-c1ccccc1C)C(=O)O` (stereo partly shown) [Example 987], the “% inhibition of farnesyltransferase at 1 × 10^-6 M” value (shortened to “% inhibition … at 1 × 10^-6 M”) is reported as 93%.

In the case of `CSCC[C@H](NC(=O)c1ccc(NC[C@@H]2C[C@H](S)CN2)cc1-c1ccccc1)C(=O)O` [Example 959], the “% inhibition of farnesyltransferase at 1 × 10^-7 M” value (shortened to “% inhibition … at 1 × 10^-7 M”) (1 × 10^-7 M (Table 3)) is reported as over 50%.

Compound `CSCC[C@H](NC(=O)c1ccc(CC(CO)CCC2CCCCC2)cc1-c1ccccc1C)C(=O)O` (stereo partly shown) [Example 1299, N-[4-(2-(2-Cyclohexylethyl)-1-hydroxyprop-3-yl)-2-(2-methylphenyl)benzoyl]methionine Lithium Salt] has an inhibition at 0.01 µM [1] of 96%.

For `CSCC[C@H](NC(=O)c1ccc(CN[C@H](C)CC2CCCCC2)cc1-c1ccccc1C)C(=O)O` [Example 613], the “% inhibition … at 1 × 10^-6 M” value was 97%.

With `CSCC[C@H](NC(=O)c1ccc(CCc2ccc3ccccc3c2)cc1-c1ccccc1C)C(=O)O` [Example 468, lithium salt] the inhibition at 1 µM was 96%.

`CSCC[C@H](NC(=O)c1cc(Cc2ccccc2)c(COCc2ccccc2)cc1-c1ccccc1C)C(=O)O` [Example 923] was tested, and the “% inhibition … at 1 × 10^-6 M” value was 78%.

`COc1cc(I)c(C(=O)Nc2ccc(C(=O)N[C@@H](CCSC)C(=O)O)c(-c3ccccc3)c2)cc1OC` [Example 756] was tested, and the “% inhibition of farnesyltransferase at 1 × 10^-5 M” value (shortened to “% inhibition … at 1 × 10^-5 M”) was 47%.

For `COC(=O)c1cscc1NCc1ccc(C(=O)N[C@@H](CCSC)C(=O)O)c(-c2ccccc2C)c1` [Example 724], the “% inhibition … at 1 × 10^-6 M” value was 87%.

With `CSCC[C@H](NC(=O)c1ccc(CNc2ccc(S(=O)(=O)Nc3onc(C)c3C)cc2)cc1-c1ccccc1C)C(=O)O` [Example 726] the “% inhibition … at 1 × 10^-6 M” value was 81%.

With `CSCC[C@H](NC(=O)c1ccc(NC(=O)c2cnccc2C(F)(F)F)cc1-c1ccccc1C)C(=O)O` [Example 481] the “% inhibition … at 1 × 10^-6 M” value was 95%.

For `CCCCC(OCc1ccc(C(=O)N[C@@H](CCSC)C(=O)O)c(-c2ccccc2C)c1)c1cncs1` (stereo partly shown) [Example 985], the “% inhibition of farnesyltransferase at 1 × 10^-8 M” value (shortened to “% inhibition … at 1 × 10^-8 M”) (1 × 10^-8 M (Table 4)) was 89%.

In the case of `CSCC[C@H](NC(=O)c1ccc(CN(C2CC2)C2(CC3CCCCC3)CC2)cc1-c1ccccc1C)C(=O)O` [Example 324], the inhibition at 1 µM is reported as 98%.

For `CSCC[C@H](NC(=O)c1ccc(NC(=O)Cc2ccccc2)cc1-c1ccccc1C)C(=O)O` [Example 540], the “% inhibition … at 1 × 10^-6 M” value was 40%.

`CSCC[C@H](NC(=O)c1ccc(CN2CCC[C@H]2COCC2CCCCC2)cc1-c1ccccc1C)C(=O)O` [Example 992, N-[4-(2-cyclohexylmethoxymethylpyrrolidin-1-ylmethyl)-2-(2-methylphenyl)benzoyl]methionine] showed an inhibition at 0.01 µM [2] of 93%.

With `CSCC[C@H](NC(=O)c1ccc(CN(C)C(CC2CCCCC2)C(=O)N2CCOCC2)cc1-c1ccccc1C)C(=O)O` (stereo partly shown) [Example 302] the inhibition at 1 µM was 31%.

For `CSCC[C@H](NC(=O)c1ccc(CO[C@H](CSC)CC2CCCCC2)cc1-c1ccccc1C)C(=O)O` [Example 882], the “% inhibition … at 1 × 10^-8 M” value (1 × 10^-8 M (Table 4)) was 79%.

In the case of `CSCC[C@H](NC(=O)c1ccc(CN(C(C)C)C2(CC3CCCCC3)CCCC2)cc1-c1ccccc1C)C(=O)O` [Example 344], the inhibition at 1 µM is reported as 95%.

`CSCC[C@H](NC(=O)c1ccc(CN(C(=O)OC(C)(C)C)C(CC2CCCCC2)CC2CCCCC2)cc1-c1ccccc1C)C(=O)O` [Example 886] was tested, and the “% inhibition … at 1 × 10^-6 M” value was 35%.

In the case of `CCSC[C@H](CCc1ccccc1)NCc1ccc(C(=O)N[C@@H](CCSC)C(=O)O)c(-c2ccccc2C)c1` [Example 995], the “% inhibition … at 1 × 10^-8 M” value (1 × 10^-8 M (Table 4)) is reported as 92%.

For `CSCC[C@H](NC(=O)c1ccc(CN(c2ccccc2)S(=O)(=O)c2ccccc2)cc1-c1ccccc1C)C(=O)O` [Example 769], the “% inhibition … at 1 × 10^-7 M” value (1 × 10^-7 M (Table 3)) was 90%.

`Cc1ccccc1-c1cc(CN(C2CC2)C(C)(C)Cc2ccccc2)ccc1C(=O)N[C@@H](CCS(C)(=O)=O)C(=O)O` [Example 319] was tested, and the inhibition at 1 µM was 98%.

In the case of `COc1ccc(COCc2ccc(C(=O)N[C@@H](CCSC)C(=O)[O-])c(-c3ccccc3C)c2)cc1.[Li+]` [Example 935], the “% inhibition … at 1 × 10^-7 M” value (1 × 10^-7 M (Table 3)) is reported as 72%.

For `CSCC[C@H](NC(=O)c1ccc(C=CCCCc2ccccc2)cc1-c1ccccc1C)C(=O)O` [Example 480, N-[4-(5-phenylpent-1-enyl)-2-(2-methylphenyl)benzoyl]methionine], the inhibition at 1 µM was 87%.

In the case of `CSCC[C@H](NC(=O)c1ccc(CCc2cccc(Oc3ccccc3)c2)cc1-c1ccccc1C)C(=O)O` [Example 459, N-[4-(2-(3-phenoxyphenyl)ethyl)-2-(2-methylphenyl)benzoyl]methionine lithium salt], the inhibition at 0.1 µM [3] is reported as 92%.

For `CSCC[C@H](NC(=O)c1ccc(NCC2CNCCN2)cc1-c1ccccc1)C(=O)O` (stereo partly shown) [Example 286], the “% inhibition … at 1 × 10^-6 M” value was 84%.

`CSCC[C@H](NC(=O)c1ccc(CP(=O)(CCC2CCCCC2)CCC2CCCCC2)cc1-c1ccccc1C)C(=O)O` [Example 1219, N-[4-(Di(2-cylohexylethyl)(oxophosphinyl)methyl)-2-(2-methylphenyl)benzoyl]methionine] showed an inhibition at 0.01 µM [1] of 85%.

With `CCSCC(CCC1CCCCC1)Cc1ccc(C(=O)N[C@@H](CCSC)C(=O)O)c(-c2ccccc2C)c1` (stereo partly shown) [Example 1300, N-[4-(2-(2-Cyclohexylethyl)-1-ethylthioprop-3-yl)-2-(2-methylphenyl)benzoyl]methionine Lithium Salt] the inhibition at 0.1 µM (read-out: % inhibition at 0.1 μM (*), Table 6, * = 0.1 μM (footnote), title prints 0.1 mM) was 97%.

`CSCC[C@H](NC(=O)c1ccc(CN(CCc2ccccc2)c2ccccc2)cc1-c1ccccc1C)C(=O)O` [Example 507] was tested, and the “% inhibition … at 1 × 10^-6 M” value was 96%.

For `CSCC[C@H](NC(=O)c1ccc(COC2(Cc3ccccc3)CCN(C(=O)OC(C)(C)C)CC2)cc1-c1ccccc1C)C(=O)[O-].[Li+]` [Example 809], the “% inhibition … at 1 × 10^-6 M” value was 78%.

`CSCC[C@H](NC(=O)c1ccc(CNCCN2CCCC2)cc1-c1ccccc1)C(=O)O` [Example 641] was tested, and the “% inhibition … at 1 × 10^-6 M” value was 34%.

For `CSCC[C@H](NC(=O)c1ccc(COCc2cnc(-c3ccccc3Cl)s2)cc1-c1ccccc1C)C(=O)[O-].[Li+]` [Example 897], the “% inhibition … at 1 × 10^-8 M” value (1 × 10^-8 M (Table 4)) was 76%.

In the case of `CCC(=O)N(CCCc1ccc(C(=O)N[C@@H](CCSC)C(=O)O)c(-c2ccccc2C)c1)C1CCCCC1` [Example 1145], the “% inhibition at 0.1 μM (*)” value (Table 6, * = 0.1 μM (footnote), title prints 0.1 mM) is reported as 83%.

`CSCC[C@H](NC(=O)c1ccc(CN(CCO)c2ccccc2)cc1-c1ccccc1)C(=O)O` [Example 505] was tested, and the “% inhibition … at 1 × 10^-6 M” value was 72%.

`CSCC[C@H](NC(=O)c1ccc(CNCCCN2CCOCC2)cc1-c1ccccc1)C(=O)O` [Example 377] was tested, and the “% inhibition … at 1 × 10^-5 M” value was 71%.

In the case of `CSCC[C@H](NC(=O)c1ccc(CN(CCC2CCCCC2)S(=O)(=O)c2ccccc2)cc1-c1ccccc1C)C(=O)O` [Example 612], the “% inhibition … at 1 × 10^-8 M” value (1 × 10^-8 M (Table 4)) is reported as 96%.

In the case of `CSCC[C@H](NC(=O)c1ccc(CN2CCCC(OCC3CCCCC3)C2)cc1-c1ccccc1C)C(=O)O` (stereo partly shown) [Example 990, N-[4-(3-cyclohexylmethoxypiperidin-1-ylmethyl)-2-(2-methylphenyl)benzoyl]methionine], the inhibition at 0.1 µM [3] is reported as 84%.

`CSCC[C@H](NC(=O)c1ccc(CNc2ccc(C3CCCCC3)cc2)cc1-c1ccccc1)C(=O)O` [Example 699] was tested, and the “% inhibition … at 1 × 10^-5 M” value was 74%.

In the case of `CCN(Cc1ccc(C(=O)N[C@@H](CCSC)C(=O)O)c(-c2ccccc2)c1)Cc1cc([N+](=O)[O-])ccc1O` [Example 711], the “% inhibition … at 1 × 10^-5 M” value is reported as 46%.

In the case of `CSCC[C@H](NC(=O)c1ccc(CN(Cc2cncs2)S(=O)(=O)c2ccc(C)cc2)cc1-c1ccccc1C)C(=O)O` [Example 877], the “% inhibition … at 1 × 10^-8 M” value (1 × 10^-8 M (Table 4)) is reported as 68%.

For `CSCC[C@H](NC(=O)c1ccc(CON=C(Cc2ccccc2)Cc2ccccc2)cc1-c1ccccc1C)C(=O)O` [Example 888, N-[4-N-(1,3-Diphenylpropan-2-yl)iminooxymethyl-2-(2-methylphenyl)benzoyl]-methionine lithium salt], the inhibition at 0.01 µM [2] was 86%.

`CSCC[C@H](NC(=O)c1ccc(CSc2nnc[nH]2)cc1-c1ccccc1C)C(=O)O` [Example 735] was tested, and the “% inhibition … at 1 × 10^-7 M” value (1 × 10^-7 M (Table 3)) was 96%.

For `CSCC[C@H](NC(=O)c1ccc(CN[C@H](CCCC(C)C)CC2CCCCC2)cc1-c1ccccc1C)C(=O)O` [Example 527], the “% inhibition … at 1 × 10^-7 M” value (1 × 10^-7 M (Table 3)) was 97%.

With `CSCC[C@H](NC(=O)c1ccc(CSc2ncnc3[nH]cnc23)cc1-c1ccccc1C)C(=O)O` [Example 747] the “% inhibition … at 1 × 10^-7 M” value (1 × 10^-7 M (Table 3)) was 68%.

`CCCCC(Cc1ccccc1Cl)OCc1ccc(C(=O)N[C@@H](CCSC)C(=O)O)c(-c2ccccc2C)c1` (stereo partly shown) [Example 943] was tested, and the “% inhibition … at 1 × 10^-8 M” value (1 × 10^-8 M (Table 4)) was 79%.

In the case of `CSCC[C@H](NC(=O)c1ccc(C#Cc2cncnc2)cc1-c1ccccc1C)C(=O)O` [Example 493, N-[4-(2-pyrimidin-5-ylethynyl)-2-(2-methylphenyl)benzoyl]methionine lithium salt], the inhibition at 0.1 µM [3] is reported as 51%.

With `CSCC[C@H](NC(=O)c1ccc(CS(=O)(=O)Cc2ccccc2)cc1-c1ccccc1C)C(=O)O` [Example 555] the “% inhibition … at 1 × 10^-6 M” value was 85%.
